Where two headings read alike, the source gives them in different places.
Assays:
human TLR9 = human TLR9 (Homo sapiens (Human), UniProt Q9NR96); assay: TLR9 inhibition reporter assay (HEK-Blue cells, SEAP reporter, ODN2006 stimulation);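 further: compounds tested over 0.05 nM to 50 µM, 22 h incubation, inhibition taken as SEAP signal drop from agonist plus DMSO wells toward a known inhibitor control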
human TLR8 = human TLR8 (Homo sapiens (Human), UniProt Q9NR97); assay: TLR8 inhibition reporter assay (HEK-Blue cells, SEAP reporter, R848 stimulation);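 further: compounds tested from 0.05 nM to 50 µM, 22 h at 37 °C, SEAP measured with HEK-Blue Detection, inhibition relative to agonist plus DMSO versus a known inhibitor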
human TLR7 = human TLR7 (Homo sapiens (Human), UniProt Q9NYK1); assay: TLR7 inhibition reporter assay (HEK-Blue cells, SEAP reporter, gardiquimod stimulation); assay type: cell-based; conditions: HEK-Blue cells overexpressing human TLR7, gardiquimod 7.5 μM
[1] = read-out: TLR9 IC50, HEK-Blue cells overexpressing human TLR9, ODN2006 5 nM
[2] = read-out: TLR8 IC50, HEK-Blue cells overexpressing human TLR8, R848 15.9 μM

Sequence of human TLR7 (Q9NYK1 27-1049): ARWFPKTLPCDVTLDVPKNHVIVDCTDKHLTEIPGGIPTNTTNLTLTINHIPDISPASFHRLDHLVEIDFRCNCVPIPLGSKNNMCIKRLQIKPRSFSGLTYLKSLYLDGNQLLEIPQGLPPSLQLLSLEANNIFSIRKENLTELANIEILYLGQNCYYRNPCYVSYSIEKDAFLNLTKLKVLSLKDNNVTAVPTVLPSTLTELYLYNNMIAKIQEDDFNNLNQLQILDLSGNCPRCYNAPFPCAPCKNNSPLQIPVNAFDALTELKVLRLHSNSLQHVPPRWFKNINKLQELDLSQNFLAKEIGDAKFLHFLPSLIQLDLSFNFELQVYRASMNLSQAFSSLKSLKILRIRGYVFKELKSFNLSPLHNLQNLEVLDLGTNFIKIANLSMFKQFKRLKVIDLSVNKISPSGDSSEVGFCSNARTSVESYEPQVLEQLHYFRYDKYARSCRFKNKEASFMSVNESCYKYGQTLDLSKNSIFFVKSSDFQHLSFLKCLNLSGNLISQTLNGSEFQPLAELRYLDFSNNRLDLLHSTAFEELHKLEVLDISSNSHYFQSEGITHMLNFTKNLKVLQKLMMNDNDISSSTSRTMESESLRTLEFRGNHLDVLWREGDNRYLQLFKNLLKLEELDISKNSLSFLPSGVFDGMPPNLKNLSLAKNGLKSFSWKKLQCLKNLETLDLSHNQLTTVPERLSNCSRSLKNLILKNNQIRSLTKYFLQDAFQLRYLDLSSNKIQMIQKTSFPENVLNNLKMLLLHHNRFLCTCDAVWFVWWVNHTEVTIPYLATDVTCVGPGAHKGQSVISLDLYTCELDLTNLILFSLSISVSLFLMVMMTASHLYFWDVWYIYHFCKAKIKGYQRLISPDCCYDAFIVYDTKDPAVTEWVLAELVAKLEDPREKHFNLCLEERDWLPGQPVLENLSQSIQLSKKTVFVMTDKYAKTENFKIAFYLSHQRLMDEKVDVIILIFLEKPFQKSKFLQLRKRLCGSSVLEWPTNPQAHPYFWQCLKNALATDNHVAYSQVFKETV
Sequence of human TLR8 (Q9NR97 27-1041): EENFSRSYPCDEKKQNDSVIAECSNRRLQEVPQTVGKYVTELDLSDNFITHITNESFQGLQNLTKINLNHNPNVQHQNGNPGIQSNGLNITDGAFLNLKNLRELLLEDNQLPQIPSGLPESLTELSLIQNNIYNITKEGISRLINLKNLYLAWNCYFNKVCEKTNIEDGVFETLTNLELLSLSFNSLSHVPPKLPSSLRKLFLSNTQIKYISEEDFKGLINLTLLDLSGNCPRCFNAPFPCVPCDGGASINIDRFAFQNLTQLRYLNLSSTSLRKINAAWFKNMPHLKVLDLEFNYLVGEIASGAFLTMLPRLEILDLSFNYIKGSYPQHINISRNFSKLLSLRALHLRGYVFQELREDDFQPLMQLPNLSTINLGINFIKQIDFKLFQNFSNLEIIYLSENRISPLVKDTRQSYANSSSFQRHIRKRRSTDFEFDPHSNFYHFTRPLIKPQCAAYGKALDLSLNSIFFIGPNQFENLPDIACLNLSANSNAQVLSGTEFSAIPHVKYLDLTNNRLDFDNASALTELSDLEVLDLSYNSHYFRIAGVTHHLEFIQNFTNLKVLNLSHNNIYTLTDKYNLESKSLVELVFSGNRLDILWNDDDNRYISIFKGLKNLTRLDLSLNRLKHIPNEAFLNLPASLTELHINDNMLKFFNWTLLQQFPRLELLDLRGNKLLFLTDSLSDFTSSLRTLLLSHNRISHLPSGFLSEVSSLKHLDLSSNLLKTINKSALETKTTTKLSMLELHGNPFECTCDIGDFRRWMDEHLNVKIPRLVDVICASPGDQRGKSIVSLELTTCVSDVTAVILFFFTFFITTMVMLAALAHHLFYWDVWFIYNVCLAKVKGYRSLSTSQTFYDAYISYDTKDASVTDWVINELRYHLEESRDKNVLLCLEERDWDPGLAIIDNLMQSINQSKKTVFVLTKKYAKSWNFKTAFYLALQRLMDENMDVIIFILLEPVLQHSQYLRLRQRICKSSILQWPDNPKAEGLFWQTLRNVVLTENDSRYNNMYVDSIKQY
Sequence of human TLR9 (Q9NR96 26-1032): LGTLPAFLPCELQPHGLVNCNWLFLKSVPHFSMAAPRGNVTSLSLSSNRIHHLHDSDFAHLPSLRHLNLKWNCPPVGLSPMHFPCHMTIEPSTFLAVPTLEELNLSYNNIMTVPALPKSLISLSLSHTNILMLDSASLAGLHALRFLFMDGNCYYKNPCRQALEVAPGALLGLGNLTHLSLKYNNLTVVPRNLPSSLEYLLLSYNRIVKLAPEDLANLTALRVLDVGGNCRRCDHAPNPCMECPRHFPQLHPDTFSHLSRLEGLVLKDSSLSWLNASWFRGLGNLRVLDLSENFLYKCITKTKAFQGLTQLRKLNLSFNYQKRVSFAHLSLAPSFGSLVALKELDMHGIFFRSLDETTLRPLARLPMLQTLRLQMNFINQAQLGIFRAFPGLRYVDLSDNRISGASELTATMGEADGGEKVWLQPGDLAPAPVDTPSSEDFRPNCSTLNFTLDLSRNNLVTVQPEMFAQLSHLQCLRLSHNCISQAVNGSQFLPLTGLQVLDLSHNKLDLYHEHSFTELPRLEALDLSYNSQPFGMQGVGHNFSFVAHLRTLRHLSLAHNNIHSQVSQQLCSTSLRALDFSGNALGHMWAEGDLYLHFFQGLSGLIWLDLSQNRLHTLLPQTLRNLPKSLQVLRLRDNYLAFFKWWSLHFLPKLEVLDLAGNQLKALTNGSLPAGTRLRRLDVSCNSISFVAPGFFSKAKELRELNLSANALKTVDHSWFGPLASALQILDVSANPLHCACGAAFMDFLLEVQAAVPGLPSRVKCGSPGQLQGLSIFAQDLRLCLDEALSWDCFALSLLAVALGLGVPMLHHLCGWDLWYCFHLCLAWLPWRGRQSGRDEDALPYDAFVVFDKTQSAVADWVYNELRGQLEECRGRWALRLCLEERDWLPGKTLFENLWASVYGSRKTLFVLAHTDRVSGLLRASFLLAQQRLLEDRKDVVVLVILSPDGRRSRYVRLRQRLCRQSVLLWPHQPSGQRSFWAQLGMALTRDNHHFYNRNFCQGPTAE

Row | Compound | IC50 (human TLR9; [1]) | IC50 (human TLR8; [2]) | IC50 (human TLR7) | IC50 (human TLR9; TLR9 IC50, HEK-Blue cells overexpressing human TLR9, ODN2006 5 nM) | IC50 (human TLR8; TLR8 IC50, HEK-Blue cells overexpressing human TLR8, R848 15.9 μM)
1 | Cc1cc(-c2[nH]c3ccc(C4CCN(CC5CCCCC5)CC4)cc3c2C(C)C)cc(C)n1 [Example 328, 5-(1-(cyclohexylmethyl)piperidin-4-yl)-2-(2,6-dimethylpyridin-4-yl)-3-isopropyl-1H-indole] | 7220 nM | 77.1 nM | 49.8 nM |  | 
2 | CCc1c(-c2cc(C)nc(C)c2)[nH]c2ccc(C3CCN(CC(=O)NC)CC3)cc12 [Example 527, 2-(4-(2-(2,6-dimethylpyridin-4-yl)-3-ethyl-1H-indol-5-yl)piperidin-1-yl)-N-methylacetamide] | 608 nM | 63.6 nM | 54.1 nM |  | 
3 | Cc1cc(-c2[nH]c3ccc(C4CCN(C(=O)CN(CCO)C(C)C)CC4)cc3c2C(C)C)cc(C)n1 [Example 415, 1-(4-(2-(2,6-dimethylpyridin-4-yl)-3-isopropyl-1H-indol-5-yl)piperidin-1-yl)-2-((2-hydroxyethyl)(isopropyl)amino)ethan-1-one] | 1860 nM | 39.7 nM | 7.9 nM |  | 
4 | CCCN(CCO)C(=O)CN1CCC(c2ccc3[nH]c(-c4cc(C)nc(C)c4)c(C(C)C)c3c2)CC1 [Example 295, 2-(4-(2-(2,6-dimethylpyridin-4-yl)-3-isopropyl-1H-indol-5-yl)piperidin-1-yl)-N-(2-hydroxyethyl)-N-propylacetamide] | 3170 nM | 142 nM | 30 nM |  | 
5 | Cc1cc(-c2[nH]c3ccc(C4CCN(C5COC5)CC4)cc3c2C(C)C)c(C)cn1 [Example 722, 2-(2,5-dimethylpyridin-4-yl)-3-isopropyl-5-(1-(oxetan-3-yl)piperidin-4-yl)-1H-indole] | 5890 nM | 6.3 nM | 24.4 nM |  | 
6 | Cc1cc(-c2[nH]c3ccc(C4CCN(C(=O)CN(C)C)CC4)cc3c2C(C)C)cc(C2CC2)n1 [Example 506, 1-(4-(2-(2-cyclopropyl-6-methylpyridin-4-yl)-3-isopropyl-1H-indol-5-yl)piperidin-1-yl)-2-(dimethylamino)ethan-1-one] | 1100 nM | 42.7 nM | 11.1 nM |  | 
7 | CCN(C)C(=O)CN1CCC(c2ccc3[nH]c(-c4cc(C)nc(C)c4)c(C(C)C)c3c2)CC1 [Example 246, 2-(4-(2-(2,6-dimethylpyridin-4-yl)-3-isopropyl-1H-indol-5-yl)piperidin-1-yl)-N-ethyl-N-methylacetamide] | 663 nM | 5.3 nM | 2.6 nM |  | 
8 | Cc1cc(-c2[nH]c3ccc(C4CCN(C5COC5)CC4)cc3c2C(C)C)cc(C)n1 [Example 452, 2-(2,6-dimethylpyridin-4-yl)-3-isopropyl-5-(1-(oxetan-3-yl)piperidin-4-yl)-1H-indole] | 1390 nM | 16.7 nM | 4.9 nM |  | 
9 | Cc1cc(-c2[nH]c3ccc(C4CCN(C(=O)CN5CC(C(F)(F)F)C[C@@H]5CO)CC4)cc3c2C(C)C)cc(C)n1 (stereo partly drawn) [Example 404, 1-(4-(2-(2,6-dimethylpyridin-4-yl)-3-isopropyl-1H-indol-5-yl)piperidin-1-yl)-2-((2R)-2-(hydroxymethyl)-4-(trifluoromethyl)pyrrolidin-1-yl)ethan-1-one] | 11300 nM | 437 nM | 64.5 nM |  | 
10 | Cc1cc(-c2[nH]c3ccc(C4CCN(C(=O)C5CC(=O)N(C)C5)CC4)cc3c2C(C)C)ccn1 (stereo not drawn) [Example 619, 4-(4-(3-isopropyl-2-(2-methylpyridin-4-yl)-1H-indol-5-yl)piperidine-1-carbonyl)-1-methylpyrrolidin-2-one] | > 50000 nM | 67.9 nM | 51.1 nM |  | 
11 | Cc1cc(-c2[nH]c3ccc(C4CCN(C(=O)CN5CC6(COC6)C5)CC4)cc3c2C(C)C)cc(C)n1 [Example 364, 1-(4-(2-(2,6-dimethylpyridin-4-yl)-3-isopropyl-1H-indol-5-yl)piperidin-1-yl)-2-(2-oxa-6-azaspiro[3.3]heptan-6-yl)ethan-1-one] | 584 nM | 13.4 nM | 4.4 nM |  | 
12 | Cc1cc(-c2[nH]c3ccc(C4CCN(C(=O)CNCCO)CC4)cc3c2C(C)C)cc(C)n1 [Example 336, 1-(4-(2-(2,6-dimethylpyridin-4-yl)-3-isopropyl-1H-indol-5-yl)piperidin-1-yl)-2-((2-hydroxyethyl)amino)ethan-1-one] | 272 nM | 9.7 nM | 1.5 nM |  | 
13 | CCc1c(-c2ccnc(C)c2)[nH]c2ccc(C3CCN(C(=O)CCC4CCNCC4)CC3)cc12 [Example 632, 1-(4-(3-ethyl-2-(2-methylpyridin-4-yl)-1H-indol-5-yl)piperidin-1-yl)-3-(piperidin-4-yl)propan-1-one] | 795 nM | 35.8 nM | 91.8 nM |  | 
14 | CCc1c(-c2cc(Cl)ncc2OC)[nH]c2ccc(C3CCN(C4CCN(CC(C)C)CC4)CC3)cc12 [Example 763, 2-(2-chloro-5-methoxypyridin-4-yl)-3-ethyl-5-(1′-isobutyl-[1,4′-bipiperidin]-4-yl)-1H-indole] | 1900 nM | 514 nM | 4950 nM |  | 
15 | Cc1cc(-c2[nH]c3ccc(C4CCN(Cc5cccnc5)CC4)cc3c2C(C)C)cc(C)n1 [Example 433, 2-(2,6-dimethylpyridin-4-yl)-3-isopropyl-5-(1-(pyridin-3-ylmethyl)piperidin-4-yl)-1H-indole] |  |  | 4.6 nM | 234 nM | 2.4 nM
16 | Cc1cc(-c2[nH]c3ccc(C4CCN(C5CCOC5)CC4)cc3c2C(C)C)c(F)cn1 (stereo not drawn) [Example 725, 2-(5-fluoro-2-methylpyridin-4-yl)-3-isopropyl-5-(1-(tetrahydrofuran-3-yl)piperidin-4-yl)-1H-indole] | 2990 nM | 4.5 nM | 3 nM |  | 
17 | Cc1cc(-c2[nH]c3ccc(C4CCN(C(=O)C5CCNC5)CC4)cc3c2C(C)C)ccn1 (stereo not drawn) [Example 572, (4-(3-isopropyl-2-(2-methylpyridin-4-yl)-1H-indol-5-yl)piperidin-1-yl)(pyrrolidin-3-yl)methanone] | 692 nM | 18.6 nM | 5.1 nM |  | 
18 | Cc1cc(-c2[nH]c3ccc(C4CCN(CC(=O)NCCC(C)(C)C)CC4)cc3c2C(C)C)cc(C)n1 [Example 236, N-(3,3-dimethylbutyl)-2-(4-(2-(2,6-dimethylpyridin-4-yl)-3-isopropyl-1H-indol-5-yl)piperidin-1-yl)acetamide] | 2090 nM | 67.2 nM | 46.5 nM |  | 
19 | Cc1cc(-c2[nH]c3ccc(C4CCN(CC(=O)N(C)CC(C)C)CC4)cc3c2C(C)C)cc(C)n1 [Example 245, 2-(4-(2-(2,6-dimethylpyridin-4-yl)-3-isopropyl-1H-indol-5-yl)piperidin-1-yl)-N-isobutyl-N-methylacetamide] | 954 nM | 32.4 nM | 9.6 nM |  | 
20 | Cc1cc(-c2[nH]c3ccc(C4CCN(C(=O)C5(N)CC5)CC4)cc3c2C(C)C)cc(C)n1 [Example 195, (1-aminocyclopropyl)(4-(2-(2,6-dimethylpyridin-4-yl)-3-isopropyl-1H-indol-5-yl)piperidin-1-yl)methanone] | 5270 nM | 54 nM | 6 nM |  | 
21 | Cc1cc(-c2[nH]c3ccc(C4CCN(Cc5ncn(C)n5)CC4)cc3c2C(C)C)cc(C)n1 [Example 451, 2-(2,6-dimethylpyridin-4-yl)-3-isopropyl-5-(1-((1-methyl-1H-1,2,4-triazol-3-yl)methyl)piperidin-4-yl)-1H-indole] | 1560 nM | 12.2 nM | 5.9 nM |  | 
22 | CCc1c(-c2ccnc(C)c2)[nH]c2ccc(C3CCN(C[C@@H]4CCNC4)CC3)cc12 [Example 739, (R)-3-ethyl-2-(2-methylpyridin-4-yl)-5-(1-(pyrrolidin-3-ylmethyl)piperidin-4-yl)-1H-indole] | 96 nM | 8.2 nM | 120 nM |  | 
23 | CCc1c(-c2ccnc(N)c2O)[nH]c2ccc(C3CCNCC3)cc12 [Example 71, 2-amino-4-(3-ethyl-5-(piperidin-4-yl)-1H-indol-2-yl)pyridin-3-ol] | 2830 nM | 5640 nM | 7200 nM |  | 
24 | CCC(CC)NCC(=O)N1CCC(c2ccc3[nH]c(-c4cc(C)nc(C)c4)c(C(C)C)c3c2)CC1 [Example 345, 1-(4-(2-(2,6-dimethylpyridin-4-yl)-3-isopropyl-1H-indol-5-yl)piperidin-1-yl)-2-(pentan-3-ylamino)ethan-1-one] | 544 nM | 34 nM | 12.3 nM |  | 
25 | Cc1cc(-c2[nH]c3ccc(C4CCN(CC(N)=O)CC4)cc3c2C(C)C)c(F)cn1 [Example 652, 2-(4-(2-(5-fluoro-2-methylpyridin-4-yl)-3-isopropyl-1H-indol-5-yl)piperidin-1-yl)acetamide] | 1290 nM | 3 nM | 1.5 nM |  | 
26 | Cc1cc(-c2[nH]c3ccc(C4CCN(CC(O)C(F)(F)F)CC4)cc3c2C(C)C)ccn1 (stereo not drawn) [Example 661, 1,1,1-trifluoro-3-(4-(3-isopropyl-2-(2-methylpyridin-4-yl)-1H-indol-5-yl)piperidin-1-yl)propan-2-ol] | 1940 nM | 3.1 nM | 30.9 nM |  | 
27 | Cc1cc(-c2[nH]c3ccc(C4CCN(C(=O)CN(C)C5COC5)CC4)cc3c2C(C)C)c(F)cn1 [Example 678, 1-(4-(2-(5-fluoro-2-methylpyridin-4-yl)-3-isopropyl-1H-indol-5-yl)piperidin-1-yl)-2-(methyl(oxetan-3-yl)amino)ethan-1-one] | > 50000 nM | 30.6 nM | 12.3 nM |  | 
28 | Cc1cc(-c2[nH]c3ccc(C4CCN(C5CCOC5)CC4)cc3c2C(C)C)ccn1 (stereo not drawn) [Example 717, 3-isopropyl-2-(2-methylpyridin-4-yl)-5-(1-(tetrahydrofuran-3-yl)piperidin-4-yl)-1H-indole] | 1590 nM | 5.9 nM | 15.8 nM |  | 
